Results on one compound are retold here after paper PMC10166914, “GTN057, a komaroviquinone derivative, induced myeloma cells' death in vivo and inhibited c‐MET tyrosine kinase” (Cancer Medicine, 2023).

For one test, the system named is KMS34 cells. The test can be described thus: Growth inhibition, trypan blue exclusion assay. Format: cell-based. To be noted: Homo sapiens, KMS-34, KMS34, 48 h. The procedure: For the trypan blue exclusion assay, 2 × 10^5 cells/mL of each MM cell line were incubated with various concentrations of GTN057 (0–20 μM). The cells were cultured in triplicate plates, and viable cells were evaluated by a trypan blue exclusion assay (Trypan Blue Stain 0.4%, Gibco) using an automatic cell counter (TC20™, Bio‐Rad).

Test [1] concerns CD138-positive cells obtained from MM patients' bone marrow. The test can be described thus: Growth inhibition of patient cells, MTT assay. Format: cell-based. To be noted: Homo sapiens, 48 h. An excerpt: Mononuclear cells were obtained from the bone marrow aspirates of MM patients treated at Tokyo Saiseikai Central Hospital, by centrifugation with Lymphoprep™ (Axis‐Shield). The mononuclear cells were then labeled with CD138 MicroBeads from Miltenyi Biotec (Bergisch Gladbach). The labeled CD138‐positive cells were magnetically purified using MACS Columns (Miltenyi Biotec).
For the 3‐[…] (MTT) assay (Roche Diagnostics), 6 × 10^4 cells/mL of CD138‐positive bone marrow cells were cultured in 96‐well plates in triplicate with various concentrations of GTN057 for 48 h. The cell viability was examined by MTT dye absorbance in accord with the manufacturer's manual. We obtained the IC50 values by drawing approximate straight lines in semilogarithmic growth curves, using Microsoft Excel.
(Formazan colour is commonly taken as a measure of viable cells.)

For the next test, the system named is KMS11 cells. The test can be described thus: In vivo tumor growth assay, KMS11 xenograft. On the set-up: species or system ICR/SCID mice. The following applies: 100 mg/kg i.p., after 2 weeks of treatment, KMS11-xenografted SCID mice. As for the experimental part: For the in vivo tumor growth assay, we injected 3 × 10^7 cells of KMS11 cells subcutaneously into the flank of male 5‐week‐old ICR/SCID mice. When the tumors reached 100 mm^3, we injected (i.p.) 20 or 100 mg/kg of GTN057 solubilized in 1% Tween® 80 + 10% DMSO in saline twice every 3 days for 2 weeks. We measured the tumor volumes every day for 2 weeks as the length × width^2 × 0.52.[21]

The next test deals with KMS11 xenografted tumor. The test can be described thus: Histopathologic and immunohistochemical examination of xenografts. The test is classed as in vivo, ICR/SCID mice. The following applies: GTN057-treated KMS11 xenografts, immunohistochemistry. An excerpt:
Xenografts were excised and fixed with 10% formalin and embedded in paraffin. Five‐μm sliced sections were used for hematoxylin and eosin (H&E) staining. For the immunohistochemical evaluation, we used anti‐human cleaved poly(ADP‐ribose), polymerase (PARP), polyclonal antibody (pAb) (Cell Signaling Technology Japan, Tokyo), anti‐human Ki‐67 monoclonal antibody (mAb) (clone MIB‐1) (Dako Japan, Tokyo), anti‐human cleaved caspase‐3 (Asp175), pAb (Cell Signaling Technology Japan), and anti‐human Factor VIII mAb (Atlas Antibodies).

The subject of another test is MUM24 cells. The test can be described thus: ROS production and growth recovery by anti-oxidants. Format: cell-based, human. As for the experimental part: First, 2 × 10^5 cells/mL of MUM24 cells were incubated with or without 6 mM NAC (N‐acetyl cysteine; Sigma‐Aldrich) or 3 mM GSH (glutathione; Sigma‐Aldrich) for 2 h. Next, 20 μM GTN057 was added and cultured for an additional 72 h. Cells were incubated with 1 μM CM‐H2DCFDA (i.e., 5‐(and‐6)‐chloromethyl‐2′, 7′‐dichlorodihydrofluorescein diacetate) for 30 min. For the evaluation of ROS production, the cells were stained with CM‐H2DCFDA and analyzed using a FACS (fluorescence‐activated cell sorting) system (LSR II, BD Biosciences). For the assessment of growth recovery by NAC or GSH, 2 × 10^5 cells/mL of MUM24 cells were also treated with 20 μM GTN057 in the presence or absence of 6 mM NAC or 3 mM GSH as described above. We conducted a trypan blue exclusion test to determine the numbers of viable cells.

`COc1c(OC(C)=O)c2c(c(O)c1C(C)C)C(=O)CC1C(C)(C)CCC[C@]1(O)C2` (stereo partly drawn) [GTN057]: the IC50 in the test on KMS34 cells came to 20.1 µM; in test [1] (Patient 1 CD138+ cells), 12.1 µM; in test [1] (Patient 2 CD138+ cells), 16.3 µM; in test [1] (Patient 3 CD138+ cells) it was 26.3 µM; in test [1] (Patient 4 CD138+ cells), 18.7 µM. For the same compound, the Average tumor volume in the test with KMS11 cells is 0.71 ± 0.17 cm^3. This compound returned an Average tumor weight in the test on KMS11 cells of 0.98 ± 0.16 g. Also, the “Number of Factor VIII-positive vessel cells” value with KMS11 xenografted tumor is reported as “decreased”. For the same compound, in the test on KMS11 xenografted tumor, the “Numbers of cleaved-caspase-3-positive and PARP-positive cells” value is given as “significantly increased”. Also, in the test on KMS11 xenografted tumor, the “Staining for cell proliferation marker MIB-1/Ki67” value is “weakened”. Besides, in the test with MUM24 cells (20 μM GTN057 with 6 mM NAC or 3 mM GSH), the “Abrogation of growth inhibition and apoptosis by anti-oxidants” value is recorded as “not significantly abrogated”. The ROS production entry in the test with MUM24 cells (20 μM, MM cells, CM-H2DCFDA, FACS) was “produced ROS”.

Broadly, the IC50 is the concentration at which inhibition is half-maximal.
